According to ChEMBL document CHEMBL5034034 (J Med Chem, 2021):
Active and inactive are the calls of the source. No cut-off for these calls is given here.

Assays:
Sus scrofa [1] = species: Sus scrofa; test: Stability of the compound assessed as porcine pancreatic elastase-mediated parent compound depletion by measuring parent compound remaining after 1 hr by LC-MS/MS analysis
[2] = AUC extrapolated in Wistar Han rat at 5 mg/kg, id measured upto 24 hrs by LC-MS/MS analysis; type: ADME, organism-based; settings: in vivo, other
[3] = AUC(0 to infinity) in Wistar Han rat at 5 mg/kg, id measured upto 24 hrs by LC-MS/MS analysis; type: ADME, organism-based; parameters: dose 5 mg/kg, time <=24; settings: in vivo
[4] = Metabolic stability in cynomolgus monkey whole blood assessed as half life measured upto 6 hrs by LC-MS/MS analysis; type: ADME, tissue-based, Macaca fascicularis
[5] = molecular target: T1, Proprotein convertase subtilisin/kexin type 9 (Homo sapiens, UniProt Q8NBP7); test: Inhibition of human PCSK9 using Alexa Fluor […] as substrate incubated for 2 hrs by FRET assay
[6] = molecular target: T1, Proprotein convertase subtilisin/kexin type 9; test: Inhibition of human PCSK9 using Alexa Fluor […] as substrate incubated for 2 hrs by FRET plus assay
[7] = molecular target: T1, Proprotein convertase subtilisin/kexin type 9; test: Inhibition of human PCSK9 using Alexa Fluor […] as substrate incubated for 2 hrs by FRET ultra assay
[8] = molecular target: T2, Solute carrier organic anion transporter family member 1B1 (Homo sapiens, UniProt Q9Y6L6); test: Inhibition of OATP1B1 (unknown origin) expressed in HEK293 cells assessed as reduction in OATP 1B1-mediated [3H]-pitavastatin uptake preincubated for 30 mins followed by [3H]-pitavastatin addition and measured after 2 mins by liquid scintillation analysis; type: cell-based
T2 sequence (Q9Y6L6 whole entry): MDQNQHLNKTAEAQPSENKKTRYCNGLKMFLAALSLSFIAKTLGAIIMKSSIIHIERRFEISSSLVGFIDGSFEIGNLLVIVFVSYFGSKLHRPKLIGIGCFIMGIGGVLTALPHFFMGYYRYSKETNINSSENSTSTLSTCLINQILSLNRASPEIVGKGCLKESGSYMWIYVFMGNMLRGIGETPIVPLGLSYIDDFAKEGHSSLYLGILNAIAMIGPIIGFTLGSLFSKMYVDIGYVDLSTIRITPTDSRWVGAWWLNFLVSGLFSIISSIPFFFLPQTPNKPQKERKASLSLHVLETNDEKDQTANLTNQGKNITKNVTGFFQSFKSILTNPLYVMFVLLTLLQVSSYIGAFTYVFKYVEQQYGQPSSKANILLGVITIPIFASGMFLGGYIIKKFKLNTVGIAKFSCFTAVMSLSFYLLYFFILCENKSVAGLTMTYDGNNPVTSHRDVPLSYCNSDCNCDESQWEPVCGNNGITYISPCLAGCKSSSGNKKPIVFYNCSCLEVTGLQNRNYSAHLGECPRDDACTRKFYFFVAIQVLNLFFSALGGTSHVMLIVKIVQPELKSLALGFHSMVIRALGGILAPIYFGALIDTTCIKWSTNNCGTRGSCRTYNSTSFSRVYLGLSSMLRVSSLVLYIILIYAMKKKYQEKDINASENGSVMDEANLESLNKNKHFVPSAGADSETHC

Bos taurus = species: Bos taurus; test: Stability of the compound assessed as bovine pancreas alpha chymotrypsin-mediated parent compound depletion by measuring parent compound remaining after 1 hr by LC-MS/MS analysis
Sus scrofa [9] = species: Sus scrofa; test: Stability of the compound assessed as porcine pepsin-mediated parent compound depletion by measuring parent compound remaining after 1 hr by LC-MS/MS analysis
[10] = Stability of the compound assessed as bovine pancreatic trypsin-mediated parent compound depletion by measuring parent compound remaining after 1 hr by LC-MS/MS analysis; type: ADME, Bos taurus; settings: cattle, read-out: Stability
[11] = Cmax in Wistar Han rat at 5 mg/kg, id measured upto 24 hrs by LC-MS/MS analysis; type: ADME, organism-based; parameters: dose 5 mg/kg, time <=24; settings: in vivo
[12] = Tmax in Wistar Han rat at 5 mg/kg, id measured upto 24 hrs by LC-MS/MS analysis; type: ADME, organism-based; settings: in vivo
[13] = Bioavailability in Wistar Han rat at 5 mg/kg, id measured upto 24 hrs by LC-MS/MS analysis; type: ADME, organism-based; settings: in vivo
[14] = AUC(0 to infinity) in cynomolgus monkey at 0.2 mg/kg, iv measured upto 72 hrs by LC-MS/MS analysis; type: ADME, organism-based, Macaca fascicularis; parameters: route intravenous, dose 0.2 mg/kg, time <=72; settings: in vivo
[15] = Clearance in cynomolgus monkey at 0.2 mg/kg, iv measured upto 72 hrs by LC-MS/MS analysis; type: ADME, organism-based, Macaca fascicularis; settings: in vivo
[16] = Volume of distribution at steady state in cynomolgus monkey at 0.2 mg/kg, iv measured upto 72 hrs by LC-MS/MS analysis; type: ADME, organism-based, Macaca fascicularis; settings: in vivo, read-out: Vdss
[17] = Half life in cynomolgus monkey at 0.2 mg/kg, iv measured upto 72 hrs by LC-MS/MS analysis; type: ADME, organism-based, Macaca fascicularis; settings: in vivo
[18] = Protein binding in cynomolgus monkey at 0.2 mg/kg, iv measured upto 72 hrs by LC-MS/MS analysis; type: ADME, organism-based, Macaca fascicularis; settings: in vivo, read-out: PB (converted)
[19] = Unbound clearance in cynomolgus monkey at 0.2 mg/kg, iv measured upto 72 hrs by LC-MS/MS analysis; type: ADME, organism-based, Macaca fascicularis; settings: in vivo
[20] = AUC(0 to infinity) in cynomolgus monkey at 1 mg/kg, po measured upto 72 hrs by LC-MS/MS analysis; type: ADME, organism-based, Macaca fascicularis; parameters: route oral, dose 1 mg/kg, time <=72; settings: in vivo
[21] = AUC extrapolated in cynomolgus monkey at 1 mg/kg, po measured upto 72 hrs by LC-MS/MS analysis; type: ADME, organism-based, Macaca fascicularis; settings: in vivo
[22] = Cmax in cynomolgus monkey at 1 mg/kg, po measured upto 72 hrs by LC-MS/MS analysis; type: ADME, organism-based, Macaca fascicularis; parameters: route oral, dose 1 mg/kg, time <=72; settings: in vivo
[23] = Tmax in cynomolgus monkey at 1 mg/kg, po measured upto 72 hrs by LC-MS/MS analysis; type: ADME, organism-based, Macaca fascicularis; settings: in vivo
[24] = Oral bioavailability in cynomolgus monkey at 1 mg/kg measured upto 72 hrs by LC-MS/MS analysis; type: ADME, organism-based, Macaca fascicularis; settings: in vivo
Mast cell = test: Induction of rat mast cells degranulation activity at 100 uM incubated for 30 mins; type: functional, tissue-based
[25] = molecular target: T1, Proprotein convertase subtilisin/kexin type 9; test: Inhibition of PCSK9 in human plasma assessed as reduction in unbound PCSK9 by target engagement assay; type: cell-free
Macaca fascicularis [26] = species: Macaca fascicularis; test: Inhibition of PCSK9 in cynomolgus monkey plasma assessed as reduction in unbound PCSK9 by target engagement assay; type: cell-free
[27] = Reduction in LDL-cholesterol levels in cynomolgus monkey at 0.2 mg/kg, iv after 48 hrs; type: functional, Macaca fascicularis; parameters: scale not given: the % may be the effect or the level left
Macaca fascicularis [28] = test: Reduction in LDL-cholesterol levels in cynomolgus monkey at 0.2 mg/kg, iv after 4 weeks; type: functional, organism-based
[29] = Reduction in unbound PCSK9 levels in cynomolgus monkey at 0.2 mg/kg, iv after 24 to 48 hrs; type: functional, Macaca fascicularis; parameters: scale not given: the % may be the effect or the level left; settings: time 24-48 hrs
[30] = Reduction in unbound PCSK9 levels in cynomolgus monkey at 0.2 mg/kg, po after 0.5 to 6 hrs; type: functional, Macaca fascicularis; parameters: scale not given: the % may be the effect or the level left; settings: time 0.5-6 hrs
[31] = Reduction in unbound PCSK9 levels in cynomolgus monkey at 0.2 mg/kg, po after 24 hrs; type: functional, Macaca fascicularis; parameters: scale not given: the % may be the effect or the level left
[32] = AUC(0 to infinity) in Wistar Han rat at 1 mg/kg, iv measured upto 24 hrs by LC-MS/MS analysis; type: ADME, organism-based; parameters: route intravenous, dose 1 mg/kg, time <=24; settings: in vivo
[33] = Clearance in Wistar Han rat at 1 mg/kg, iv measured upto 24 hrs by LC-MS/MS analysis; type: ADME, organism-based; settings: in vivo
[34] = Volume of distribution at steady state in Wistar Han rat at 1 mg/kg, iv measured upto 24 hrs by LC-MS/MS analysis; type: ADME, organism-based; settings: in vivo, read-out: Vdss
[35] = Half life in Wistar Han rat at 1 mg/kg, iv measured upto 24 hrs by LC-MS/MS analysis; type: ADME, organism-based; settings: in vivo
[36] = Protein binding in Wistar Han rat at 1 mg/kg, iv measured upto 24 hrs by LC-MS/MS analysis; type: ADME, organism-based; settings: in vivo, read-out: PB (converted)
[37] = Unbound clearance in Wistar Han rat at 1 mg/kg, iv measured upto 24 hrs by LC-MS/MS analysis; type: ADME, organism-based; settings: in vivo
[38] = AUC(0 to infinity) in cynomolgus monkey at 1 mg/kg, iv measured upto 72 hrs by LC-MS/MS analysis; type: ADME, organism-based, Macaca fascicularis; parameters: route intravenous, dose 1 mg/kg, time <=72; settings: in vivo
[39] = Clearance in cynomolgus monkey at 1 mg/kg, iv measured upto 72 hrs by LC-MS/MS analysis; type: ADME, organism-based, Macaca fascicularis; settings: in vivo
[40] = Volume of distribution at steady state in cynomolgus monkey at 1 mg/kg, iv measured upto 72 hrs by LC-MS/MS analysis; type: ADME, organism-based, Macaca fascicularis; settings: in vivo, read-out: Vdss
[41] = Half life in cynomolgus monkey at 1 mg/kg, iv measured upto 72 hrs by LC-MS/MS analysis; type: ADME, organism-based, Macaca fascicularis; settings: in vivo
[42] = Protein binding in cynomolgus monkey at 1 mg/kg, iv measured upto 72 hrs by LC-MS/MS analysis; type: ADME, organism-based, Macaca fascicularis; settings: in vivo, read-out: PB (converted)
[43] = Unbound clearance in cynomolgus monkey at 1 mg/kg, iv measured upto 72 hrs by LC-MS/MS analysis; type: ADME, organism-based, Macaca fascicularis; settings: in vivo
[44] = AUC(0 to infinity) in OATP knock out Wistar Han rat at 1 mg/kg, iv measured upto 24 hrs by LC-MS/MS analysis; type: ADME, organism-based; parameters: route intravenous, dose 1 mg/kg, time <=24; settings: in vivo
[45] = Clearance in OATP knock out Wistar Han rat at 1 mg/kg, iv measured upto 24 hrs by LC-MS/MS analysis; type: ADME, organism-based; settings: in vivo
[46] = Volume of distribution at steady state in OATP knock out Wistar Han rat at 1 mg/kg, iv measured upto 24 hrs by LC-MS/MS analysis; type: ADME, organism-based; settings: in vivo, read-out: Vdss
[47] = Half life in OATP knock out Wistar Han rat at 1 mg/kg, iv measured upto 24 hrs by LC-MS/MS analysis; type: ADME, organism-based; settings: in vivo
[48] = Protein binding in OATP knock out Wistar Han rat; type: ADME; settings: read-out: PB
[49] = Unbound clearance in OATP knock out Wistar Han rat at 1 mg/kg, iv measured upto 24 hrs by LC-MS/MS analysis; type: ADME, organism-based; settings: in vivo

T1 sequence (Q8NBP7 31-152 limits assumed): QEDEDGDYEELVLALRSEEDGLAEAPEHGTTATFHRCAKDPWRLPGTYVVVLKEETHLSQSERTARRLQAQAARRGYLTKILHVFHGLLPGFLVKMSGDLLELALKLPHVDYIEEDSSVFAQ
T1 sequence (Q8NBP7 153-692 limits assumed): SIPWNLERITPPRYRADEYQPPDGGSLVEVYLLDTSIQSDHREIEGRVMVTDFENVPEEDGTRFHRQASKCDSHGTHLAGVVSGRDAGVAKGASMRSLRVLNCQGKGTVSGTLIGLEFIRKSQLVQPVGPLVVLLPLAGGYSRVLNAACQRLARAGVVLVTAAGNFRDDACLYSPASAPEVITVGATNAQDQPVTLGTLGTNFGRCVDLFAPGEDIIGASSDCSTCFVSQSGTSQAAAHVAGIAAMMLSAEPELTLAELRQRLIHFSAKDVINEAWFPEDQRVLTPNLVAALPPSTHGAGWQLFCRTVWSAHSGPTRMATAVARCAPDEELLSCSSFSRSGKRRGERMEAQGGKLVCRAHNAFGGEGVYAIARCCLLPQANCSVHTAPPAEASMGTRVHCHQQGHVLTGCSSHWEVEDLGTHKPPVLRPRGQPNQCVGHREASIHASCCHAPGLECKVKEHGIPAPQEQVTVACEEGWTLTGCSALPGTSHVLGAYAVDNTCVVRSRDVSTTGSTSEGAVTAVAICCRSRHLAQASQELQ

COc1ccc(C[C@@H]2NC(=O)[C@H]([C@@H](C)O)NC(=O)[C@@H]3[C@@H]4CCN3C(=O)[C@@H]3Cc5cn(c6ccc(F)cc56)Cc5cn(nn5)-c5cc(cc(c5)CSCCC(=O)N[C@@H](CNC(=O)CCOCCOCC[N+](C)(C)C)C(=O)N[C@H](C)C(=O)N[C@@H](Cc5cccc(c5)C/C=C/CO4)C(=O)N3)CSCCNC(=O)[C@]3(C)CCCN3C2=O)cc1
Stability (Sus scrofa [1]): 97% | %AUCextra [2]: 3% | AUC(0-inf) [3]: 0.274 µM·h | half-life [4]: > 6 h | Ki [5]: > 0.129 nM | Ki [6]: 0.0114 nM | Ki [7]: 0.00239 nM | EC50 [8]: > 22000 nM | Stability (Bos taurus): 93% | Stability (Sus scrofa [9]): 97.2% | remaining at 1 h [10]: 96.8% | Cmax [11]: 92 nM | Tmax [12]: 0.5 h | bioavailability [13]: 2.7% | AUC(0-inf) [14]: 1.47 µM·h | clearance [15]: 1.4 mL/min/kg | Vd [16]: 0.7 L/kg | half-life [17]: 7.6 h | fraction unbound at 72 h [18]: 0.247 | CL free [19]: 5.8 mL/min/kg | AUC(0-inf) [20]: 0.216 µM·h | %AUCextra [21]: 43% | Cmax [22]: 9.8 nM | Tmax [23]: 2 h | bioavailability [24]: 2.9% | Activity (Mast cell): inactive | inhibition [25]: Active | inhibition (Macaca fascicularis [26]): Active | Activity [27]: >50% | Activity (Macaca fascicularis [28]): inactive | Activity [29]: >80% | Activity [30]: 80% | Activity [31]: 60%

COc1ccc(C[C@@H]2NC(=O)[C@H]([C@@H](C)OC)NC(=O)[C@@H]3[C@@H]4CCN3C(=O)[C@H](Cc3c[nH]c5ccc(F)cc35)NC(=O)[C@H](Cc3cccc(c3)C/C=C/CO4)NC(=O)[C@@H](C)NC(=O)[C@H](C)NC(=O)CCSCc3cccc(c3)CSCCNC(=O)[C@]3(C)CCCN3C2=O)cc1
Ki [5]: 0.48 nM | Ki [6]: 0.39 nM | AUC(0-inf) [32]: 0.442 µM·h | clearance [33]: 28.7 mL/min/kg | Vd [34]: 0.8 L/kg | half-life [35]: 2.1 h | fraction unbound at 24 h [36]: 0.01 | CL free [37]: > 3000 mL/min/kg | AUC(0-inf) [38]: 0.648 µM·h | clearance [39]: 19.6 mL/min/kg | Vd [40]: 2.1 L/kg | half-life [41]: 3.4 h | fraction unbound at 72 h [42]: 0.024 | CL free [43]: 576 mL/min/kg | AUC(0-inf) [44]: 2.92 µM·h | clearance [45]: 4.4 mL/min/kg | Vd [46]: 0.9 L/kg | half-life [47]: 3.9 h | fraction unbound [48]: 0.01 | EC50 [8]: 130 nM | CL free [49]: 453 mL/min/kg | Activity (Mast cell): inactive
